Test results taken from patent publication US8541460B2, “PDK-1/Akt signaling inhibitors” (The Ohio State University, priority 2003, dated 2013).

Tests used:
COX-2 = COX-2 (Homo sapiens, UniProt P35354); assay: COX-2 inhibitory activity; format: biochemical; details: concentrations up to 50 μM
RPMI-8226 = assay: NCI DTP cell line screen (SRB), Leukemia; format: cell-based, human
Method: (§1) Screening of compounds 70 and 71 against several cancer cell lines The human tumor cell lines of the cancer screening panel are grown in RPMI 1640 medium containing 5% fetal bovine serum and 2 mM L-glutamine. For a typical screening experiment, cells are inoculated into 96 well microtiter plates in 100 μL at plating densities ranging from 5,000 to 40,000 cells/well depending on the doubling time of individual cell lines. After cell inoculation, the microtiter plates are incubated at 37° C., 5% CO2, 95% air and 100% relative humidity for 24 h prior to addition of experimental drugs.
(§2) After 24 h, two plates of each cell line are fixed in situ with TCA, to represent a measurement of the cell population for each cell line at the time of drug addition (Tz). Experimental drugs are solubilized in dimethyl sulfoxide at 400-fold the desired final maximum test concentration and stored frozen prior to use. At the time of drug addition, an aliquot of frozen concentrate is thawed and diluted to twice the desired final maximum test concentration with complete medium containing 50 μg/ml gentamicin. Additional four, 10-fold or ½ log serial dilutions are made to provide a total of five drug concentrations plus control. Aliquots of 100 μl of these different drug dilutions are added to the appropriate microtiter wells already containing 100 μl of medium, resulting in the required final drug concentrations.
(§3) Following drug addition, the plates are incubated for an additional 48 h at 37° C., 5% CO2, 95% air, and 100% relative humidity. For adherent cells, the assay is terminated by the addition of cold TCA. Cells are fixed in situ by the gentle addition of 50 μl of cold 50% (w/v) TCA (final concentration, 10% TCA) and incubated for 60 minutes at 4° C. The supernatant is discarded, and the plates are washed five times with tap water and air dried. Sulforhodamine B (SRB) solution (100 μl) at 0.4% (w/v) in 1% acetic acid is added to each well, and plates are incubated for 10 minutes at room temperature. After staining, unbound dye is removed by washing five times with 1% acetic acid and the plates are air dried. Bound stain is subsequently solubilized with 10 mM trizma base, and the absorbance is read on an automated plate reader at a wavelength of 515 nm. For suspension cells, the methodology is the same except that the assay is terminated by fixing settled cells at the bottom of the wells by gently adding 50 μl of 80% TCA (final concentration, 16% TCA). Using the seven absorbance measurements [time zero, (Tz), control growth, (C), and test growth in the presence of drug at the five concentration levels (Ti)], the percentage growth is calculated at each of the drug concentrations levels. Percentage growth inhibition is calculated as: [(Ti−Tz)/(C−Tz)]×100 for concentrations for which Ti>/=Tz [(Ti−Tz)/Tz]×100 for concentrations for which Ti<Tz
(§4) Three dose response parameters are calculated for each experimental agent. […] The drug concentration resulting in total growth inhibition (TGI) is calculated from Ti=Tz. […] Values are calculated for each of these three parameters if the level of activity is reached; however, if the effect is not reached or is exceeded, the value for that parameter is expressed as greater or less than the maximum or minimum concentration tested.
(§5) The methods described were used to test compounds 70 and 71 on a panel of sixty cell lines under a screening service provided by the Developmental Therapeutics Program at the National Institutes of Health. Shown in FIG. 1C are 1, RPMI-8226 leukemia cells; 2; NCI-H322M non-small cell lung cancer cells; 3, HT29 colon cancer cells; 4, U251 CNS cancer cells; 5, SK-MEL-28 melanoma cancer cells; 6, SK-OV-3 ovarian cancer cells; 7, RXF 393 renal cancer cells; 8, PC-3 prostate cancer cells; 9, MDA-MB-231 breast cancer cells.

HT29 = assay: NCI DTP cell line screen (SRB), Colon Cancer; format: cell-based
LOX IMVI = assay: NCI DTP cell line screen (SRB), Melanoma; format: cell-based
Method: as §1, §2, §3, §4, §5

M14 = assay: NCI DTP cell line screen (SRB), Melanoma; format: cell-based
Method: as §1, §2, §3, §4, §5

SK-MEL-28 = assay: NCI DTP cell line screen (SRB), Melanoma; format: cell-based
Method: as §1, §2, §3, §4, §5

SK-MEL-2 = assay: NCI DTP cell line screen (SRB), Melanoma; format: cell-based
Method: as §1, §2, §3, §4, §5

ACHN = assay: NCI DTP cell line screen (SRB), Renal Cancer; format: cell-based, human
Method: as §1, §2, §3, §4, §5

CAKI-1 = assay: NCI DTP cell line screen (SRB), Renal Cancer; format: cell-based, human
Method: as §1, §2, §3, §4, §5

[1] = read-out: LC50 (the source's name)

Chain of COX-2 (P35354 18-604): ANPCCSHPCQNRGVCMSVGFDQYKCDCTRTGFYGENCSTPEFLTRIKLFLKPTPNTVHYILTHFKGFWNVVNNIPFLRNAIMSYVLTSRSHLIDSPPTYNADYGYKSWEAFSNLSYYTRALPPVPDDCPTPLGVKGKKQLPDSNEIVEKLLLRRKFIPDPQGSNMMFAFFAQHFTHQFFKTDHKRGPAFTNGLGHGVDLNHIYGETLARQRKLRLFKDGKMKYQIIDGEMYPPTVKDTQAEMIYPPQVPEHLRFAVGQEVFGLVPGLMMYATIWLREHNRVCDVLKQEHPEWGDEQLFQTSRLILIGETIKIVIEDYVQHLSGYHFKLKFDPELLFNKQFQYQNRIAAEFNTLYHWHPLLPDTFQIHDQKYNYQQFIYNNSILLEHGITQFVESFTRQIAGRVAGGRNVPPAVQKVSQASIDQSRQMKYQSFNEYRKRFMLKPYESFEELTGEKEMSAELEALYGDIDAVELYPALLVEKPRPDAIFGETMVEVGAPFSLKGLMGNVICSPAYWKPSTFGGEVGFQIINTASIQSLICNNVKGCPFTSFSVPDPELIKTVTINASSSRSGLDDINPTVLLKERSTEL

N=C(N)Nc1ccc(-n2nc(C(F)(F)F)cc2-c2ccc3c(ccc4ccccc43)c2)cc1 [Compound 71, 4-[5-(2-Phenanthrenyl)-3-(trifluoromethyl)-1H-pyrazol-1-yl]-phenyl-guanidine]
COX-2 inhibitory activity (COX-2): nor was any measurable COX-2 inhibitory activity detected
GI50 (RPMI-8226): 1.03 µM
Mean Optical Densities (RPMI-8226; Log10 Concentration −4.0): 0.176
Percent Growth (RPMI-8226; Log10 Concentration −4.0): −47%
Mean Optical Densities (RPMI-8226; Log10 Concentration −5.0): 0.016
Percent Growth (RPMI-8226; Log10 Concentration −5.0): −95%
Mean Optical Densities (RPMI-8226; Log10 Concentration −6.0): 0.513
Percent Growth (RPMI-8226; Log10 Concentration −6.0): 52%
Mean Optical Densities (RPMI-8226; Log10 Concentration −7.0): 0.559
Percent Growth (RPMI-8226; Log10 Concentration −7.0): 65%
Mean Optical Densities (RPMI-8226; Log10 Concentration −8.0): 0.536
Percent Growth (RPMI-8226; Log10 Concentration −8.0): 58%
TGI (RPMI-8226; in M (unit assumed)): 2.25E−06
GI50 (HT29): 1.5 µM
TGI (HT29): 2.83E−06
Mean Optical Densities (HT29; Log10 Concentration −4.0): 0.003
Percent Growth (HT29; Log10 Concentration −4.0): −99%
Mean Optical Densities (HT29; Log10 Concentration −5.0): −0.054
Percent Growth (HT29; Log10 Concentration −5.0): −100%
Mean Optical Densities (HT29; Log10 Concentration −6.0): 1.136
Percent Growth (HT29; Log10 Concentration −6.0): 82%
Mean Optical Densities (HT29; Log10 Concentration −7.0): 1.238
Percent Growth (HT29; Log10 Concentration −7.0): 91%
Mean Optical Densities (HT29; Log10 Concentration −8.0): 1.276
Percent Growth (HT29; Log10 Concentration −8.0): 95%
CC50 (HT29; [1]): 5.32 µM
GI50 (LOX IMVI): 1.34 µM
TGI (LOX IMVI): 2.65E−06
Mean Optical Densities (LOX IMVI; Log10 Concentration −4.0): 0.165
Percent Growth (LOX IMVI; Log10 Concentration −4.0): −53%
Mean Optical Densities (LOX IMVI; Log10 Concentration −5.0): 0.008
Percent Growth (LOX IMVI; Log10 Concentration −5.0): −98%
Mean Optical Densities (LOX IMVI; Log10 Concentration −6.0): 0.935
Percent Growth (LOX IMVI; Log10 Concentration −6.0): 72%
Mean Optical Densities (LOX IMVI; Log10 Concentration −7.0): 1.033
Percent Growth (LOX IMVI; Log10 Concentration −7.0): 84%
Mean Optical Densities (LOX IMVI; Log10 Concentration −8.0): 0.948
Percent Growth (LOX IMVI; Log10 Concentration −8.0): 73%
CC50 (LOX IMVI; [1]): 5.22 µM
GI50 (M14): 1.48 µM
TGI (M14): 2.80E−06
Mean Optical Densities (M14; Log10 Concentration −4.0): 0.210
Percent Growth (M14; Log10 Concentration −4.0): −33%
Mean Optical Densities (M14; Log10 Concentration −5.0): −0.004
Percent Growth (M14; Log10 Concentration −5.0): −100%
Mean Optical Densities (M14; Log10 Concentration −6.0): 0.816
Percent Growth (M14; Log10 Concentration −6.0): 81%
Mean Optical Densities (M14; Log10 Concentration −7.0): 0.823
Percent Growth (M14; Log10 Concentration −7.0): 82%
Mean Optical Densities (M14; Log10 Concentration −8.0): 0.772
Percent Growth (M14; Log10 Concentration −8.0): 74%
GI50 (SK-MEL-28): 1.56 µM
TGI (SK-MEL-28): 2.89E−06
Mean Optical Densities (SK-MEL-28; Log10 Concentration −4.0): 0.248
Percent Growth (SK-MEL-28; Log10 Concentration −4.0): −53%
Mean Optical Densities (SK-MEL-28; Log10 Concentration −5.0): −0.002
Percent Growth (SK-MEL-28; Log10 Concentration −5.0): −100%
Mean Optical Densities (SK-MEL-28; Log10 Concentration −6.0): 1.367
Percent Growth (SK-MEL-28; Log10 Concentration −6.0): 86%
Mean Optical Densities (SK-MEL-28; Log10 Concentration −7.0): 1.408
Percent Growth (SK-MEL-28; Log10 Concentration −7.0): 90%
Mean Optical Densities (SK-MEL-28; Log10 Concentration −8.0): 1.439
Percent Growth (SK-MEL-28; Log10 Concentration −8.0): 93%
GI50 (SK-MEL-2): 1.57 µM
TGI (SK-MEL-2): 2.91E−06
Mean Optical Densities (SK-MEL-2; Log10 Concentration −4.0): 0.324
Percent Growth (SK-MEL-2; Log10 Concentration −4.0): −29%
Mean Optical Densities (SK-MEL-2; Log10 Concentration −5.0): −0.010
Percent Growth (SK-MEL-2; Log10 Concentration −5.0): −100%
Mean Optical Densities (SK-MEL-2; Log10 Concentration −6.0): 0.780
Percent Growth (SK-MEL-2; Log10 Concentration −6.0): 87%
Mean Optical Densities (SK-MEL-2; Log10 Concentration −7.0): 0.819
Percent Growth (SK-MEL-2; Log10 Concentration −7.0): 97%
Mean Optical Densities (SK-MEL-2; Log10 Concentration −8.0): 0.775
Percent Growth (SK-MEL-2; Log10 Concentration −8.0): 85%
GI50 (ACHN): 1.67 µM
Mean Optical Densities (ACHN; Log10 Concentration −4.0): 0.291
Percent Growth (ACHN; Log10 Concentration −4.0): −22%
Mean Optical Densities (ACHN; Log10 Concentration −5.0): 0.034
Percent Growth (ACHN; Log10 Concentration −5.0): −91%
Mean Optical Densities (ACHN; Log10 Concentration −6.0): 0.964
Percent Growth (ACHN; Log10 Concentration −6.0): 90%
Mean Optical Densities (ACHN; Log10 Concentration −7.0): 0.902
Percent Growth (ACHN; Log10 Concentration −7.0): 81%
Mean Optical Densities (ACHN; Log10 Concentration −8.0): 0.898
Percent Growth (ACHN; Log10 Concentration −8.0): 80%
TGI (ACHN; in M (unit assumed)): 3.15E−06
GI50 (CAKI-1): 1.83 µM
Mean Optical Densities (CAKI-1; Log10 Concentration −4.0): 0.315
Percent Growth (CAKI-1; Log10 Concentration −4.0): −47%
Mean Optical Densities (CAKI-1; Log10 Concentration −5.0): −0.067
Percent Growth (CAKI-1; Log10 Concentration −5.0): −100%
Mean Optical Densities (CAKI-1; Log10 Concentration −6.0): 1.804
Percent Growth (CAKI-1; Log10 Concentration −6.0): 103%
Mean Optical Densities (CAKI-1; Log10 Concentration −7.0): 1.642
Percent Growth (CAKI-1; Log10 Concentration −7.0): 89%
Mean Optical Densities (CAKI-1; Log10 Concentration −8.0): 1.735
Percent Growth (CAKI-1; Log10 Concentration −8.0): 97%
TGI (CAKI-1; in M (unit assumed)): 3.22E−06
